Columns and labels:
Assay type in all cases: cell-based
[1] = tested on: mold found on a cannabis flower; assay: Terpene added to known contaminated sample during preparation of the culture plate
From the text: Terpenes can inhibit the growth of mold found on a cannabis flower 840. An effective range is 1-5% with some inhibition at levels as low as 0.1% 850 of one embodiment.

[2] = tested on: yeast and mold species from certified reference materials; assay: Paper disc inhibition on agar plates of yeast and mold species from certified reference materials; conditions: paper discs, terpene only, 10% and 1% dilutions in ethanol; ethanol-only center disc
Protocol: Paper discs were added to the plates, and small volumes of terpenes diluted in ethanol were added to the discs 902. The center discs had ethanol only, while ‘1:1’ discs had terpene only 904 and 10% and 1% dilutions of terpene in ethanol were also included 910. […] Many terpenes are likely to have inhibitory effects on microbial growth 940. […] Terpenes microbial growth inhibitor samples 970 include carene, humulene, limonene, ocimene, terpineol, and terpinolene of one embodiment.

[3] = tested on: three mold species and one species of Enterobacteriaceae found on cannabis flowers; assay: Paper inhibition disc trials across several microbial species; conditions: paper inhibition discs with terpene dilutions in ethanol; EB species and three mold species
From the text: The method of determining terpene-based biocontrol agents for use on cannabis and hemp include processing steps that include a. Isolate epiphytic microorganisms from cannabis ‘flower wash’ and isolate into pure cultures. b. Grow up individual fungal or bacterial broth cultures with shaking at RT until turbidity is evident; if, possible take OD600 nm reading of turbidity for each culture just prior to plating out serial dilutions onto agar plates to determine ˜CFU/ml. c. Based on CFU data from (b) above, re-inoculate fresh broth cultures for individual cultures monitoring OD600 nm to reach previous data point and make appropriate dilutions to attain complete seeding on agar petri plate. d. While allowing bacterial suspension to be absorbed into agar, prepare terpene-treated Whatman filter paper hole punches by aliquoting 25 μl of either full strength, 1:10 dilution or 1:100 dilution. Dilutions should be made into 1-15% MeOH or 1-2% castile soap. e. […] One terpene per plate at three concentrations with negative control. ii. One microbial culture seeded per plate. f. Allow plates to grow with incubation at 28° C. for overnight and photograph as well as measuring any zones of inhibition. Continue incubation for 2 more days, taking photographs and making measurements after each 24-hr period. g. Repeat steps (c) through (f) for each terpene against all microbial cultures.
These four plates show three mold species and one species of Enterobacteriaceae found on cannabis flowers 1010. One Enterobacteriaceae species sample plate and three mold species sample plates 1020. An Enterobacteriaceae Count Plate referred to herein as EB plate 1022, and mold species sample plates Mold 1 plate 1024, Mold 2 plate 1026, and Mold 3 plate 1028. The indicated colonies were picked and cultured prior to inoculation of agar petri dishes 1030. Paper inhibition discs with terpene dilutions in ethanol were applied immediately after inoculation of the agar plate as described previously 1040
The EB species and three mold species were tested for inhibition with the selected terpenes 1110. The indicated colonies were picked and cultured prior to inoculation of agar petri dishes 1120. Paper inhibition discs with terpene dilutions in ethanol were applied immediately after inoculation of the agar plate as described previously 1130. […] The results of the trials across several microbial species is continued in FIG. 11B.
There was also significant inhibition of bacterial growth by many of the terpenes 1150. Different microbial species were differentially affected by individual terpenes 1160. […]

SMILES | inhibition of mold growth ([1]; terpene added at 0.1% to known contaminated sample) | inhibition of mold growth ([1]; terpene added at 1% to known contaminated sample) | inhibition of yeast and mold growth [2] | effectiveness among terpenes tested [3]
CC1=CCC(=C(C)C)CC1 [terpinolene] | significant inhibition of mold growth | significant inhibition of mold growth | the most inhibition | –
CC(C)=CCCC(C)=CC=O [Citral, citral] | – | – | – | the most effective of terpenes tested
CC(C)=CCC/C(C)=C/CO [geraniol] | – | – | – | the most effective of terpenes tested
C=CCc1ccc(O)c(OC)c1 [eugenol] | – | – | – | the most effective of terpenes tested
C=CC(C)(O)CCC=C(C)C (stereo not shown) [linalool] | – | – | – | the most effective of terpenes tested
